Test results from patent US10214553B2, “Solid state forms of sofosbuvir” (ratiopharm GmbH, priority 2014, dated 2019).
≈ marks a conversion by molar mass, not a printed value.

Legend:
Assay type in all cases: physicochemical
[1] = Solubility at 37° C. by UHPLC/UV; details: for solubility at 15 min / solubility at 1 h: 37 °C, thermodynamic from solid
Protocol: (§1) Sofosbuvir form 6 prepared according to example 18 above and Sofosbuvir form 7 prepared according to example 16 above was used.
The solubility was determined as follows:
100 mg test substance was weighed into a glass vial, followed by addition of 4 mL solvent (water, 0.01 M HCl, 20 mM sodium acetate/acetic acid [pH 4.5], 50 mM KH2PO4 [pH 6.8]). A stirring bar was added, the vial was fixed in a block heater at 37° C. and the suspension was stirred with 250 rpm. After 15 min and 1 h, samples were withdrawn and filtered through a 0.2 μm PTFE filter. 100 μL of the clear filtrate were diluted with 900 μL acetonitrile/water mixture (1:1) and 1 μL thereof was analyzed by UHPLC/UV:
Instrument: Agilent 1290 Infinity
Column: Phenomenex Kinetex XB—C18, 1.7 μm, 50×3 mm
Solvent A: water+0.2% Formic acid+0.1% HFBA […] heptafluorobutyric acid)

[2] = Particle size distribution by laser diffractometry (Mastersizer 2000, wet measurement); details: silicone oil
Protocol: If a wet measurement is used the particles to be measured are dispersed in a dispersant, preferably a dispersant having a refractive index (RI) of 1.403, and the measurement is carried out at 2000 rpm and ultrasound for 120 s prior to measurement. Preferably, unless otherwise indicated the particle size distribution is determined using a wet measurement using a Mastersizer 2000 from Malvern Instruments and Malvern Hydro 2000S wet sample dispersion unit and silicone oil as dispersant. Unless otherwise indicated, the following settings are preferably used:
as §1
The particle size distribution was determined using a wet measurement using a Mastersizer 2000 from Malvern Instruments and Malvern Hydro 2000S wet sample dispersion unit and silicone oil as dispersant.

[3] = Propensity to become electrostatically charged
[4] = DVS water vapor sorption (hygroscopicity); details: for critical relative humidity in the sorption curve at which the rate of water uptake changes (inflection point): DVS sorption curve; for Change in Mass (%): 25° C.
Protocol: The improved hygroscopic properties discussed herein above may be expressed by the dynamic water uptake monitored by the DVS instrument. The profile of the dynamic curve obtained may provide insight on the tendency of the substance to deliquescence. […] This behavior indicates a long-term possibility of the stored powder to stick and form lumps.
DVS measurements were performed SMS DVS instrument
Humidity range: 0%-90%-0% cycle. […]
minimum step duration: 60 min maximum step duration: 720 min

[5] = Storage stability of the solid form
[6] = Compressibility, maximum density at constant pressure of 0.2 MPa (TA-XT2 Texture analyser); details: 0.2 MPa per step, 10 steps
Protocol: As used herein, and unless indicated otherwise, the term “compressibility” is expressed as maximum density at constant pressure of 0.2 MPa.
Compression profiles were obtained using a die and a flat-faced punch fitted on a TA-XT2 Texture analyser (Stable Micro Systems Ltd., Godalming, UK).
200 mg of micronized crystalline form E of Sofosbuvir obtained according to example 8 is compressed in a steel mould (with the rate of displacement 0.03 mm/s). Cyclic procedure (similar to tapping) was performed: compressing, then retracting, relaxation for 15 s and then repeated compressive steps (altogether 10 steps). Each step exerts 0.2 MPa pressure on to the sample. Sample density is calculated by dividing the weight by the sample volume for each cycle. Maximum density is reached within 10 steps. The maximal compressive displacement was 0.5 mm. The resulting density was: 0.48 g/ml

[7] = Dissolution, USP apparatus II, paddle method; details: pH 6.8, after 5 minutes
Protocol: Sofosbuvir form 6 prepared according to example 18 above and Sofosbuvir form 7 prepared according to example 16 above was used. The dissolution of Sofosbuvir Form 7 and Form 6 was measured (in triplicate) in 50 mM phosphate buffer at 37° C. (pH 6.8, 900 mL), using USP apparatus II, paddle method. Every 5 minutes, a probe was taken and measured by UV/VIS at 260 nm and path length 0.1 cm; UV/VIS was measured on an Agilent model 8453 with Chem Station Dissolution Software. 400 mg of Sofosbuvir Form 7 or Form 6 was used for the test, and the percentages are given in relation to 400 mg of the API. The results are represented graphically in FIG. 13.

CC(C)OC(=O)[C@H](C)NP(=O)(OC[C@H]1O[C@@H](n2ccc(=O)[nH]c2=O)[C@](C)(F)[C@@H]1O)Oc1ccccc1 (stereo partly drawn) [Form 6, (2S)-isopropyl 2-(((((2R,3R,4R,5R)-5-(2,4-dioxo-3,4-dihydropyrimidin-1(2H)-yl)-4-fluoro-3-hydroxy-4-methyltetrahydrofuran-2-yl)methoxy)(phenoxy)phosphoryl)amino)propanoate]
Solubility ([1]; 0.01 M HCl, 15 min): 2500 µg/mL (≈ 4.72 mM) | Solubility ([1]; 0.01 M HCl, 1 h): 2400 µg/mL (≈ 4.53 mM) | Solubility ([1]; 20 mM NaOAc/HOAc (pH 4.5), 15 min): 2400 µg/mL (≈ 4.53 mM) | Solubility ([1]; 20 mM NaOAc/HOAc (pH 4.5), 1 h): 2500 µg/mL (≈ 4.72 mM) | Solubility ([1]; 50 mM KH2PO4 (pH 6.8), 15 min): 2300 µg/mL (≈ 4.34 mM) | Solubility ([1]; 50 mM KH2PO4 (pH 6.8), 1 h): 2300 µg/mL (≈ 4.34 mM) | Solubility ([1]; water, 15 min): 2400 µg/mL (≈ 4.53 mM) | Solubility ([1]; water, 1 h): 2300 µg/mL (≈ 4.34 mM) | Particle size D10 [2]: 2.0 μm | Particle size D50 [2]: 8.2 μm | Particle size D90 [2]: 22.9 μm | propensity to become electrostatically charged [3]: high propensity to become electrostatically charged | critical relative humidity in the sorption curve at which the rate of water uptake changes (inflection point) [4]: about 70 % RH | water uptake ([4]; DVS, above 70% RH): about 1% | Change in Mass (%) ([4]; DVS, relative humidity 70%): 0.14% | Change in Mass (%) ([4]; DVS, relative humidity 90%): 1.08%

CC(C)OC(=O)[C@H](C)NP(=O)(OC[C@H]1O[C@@H](n2ccc(=O)[nH]c2=O)[C@](C)(F)[C@@H]1O)Oc1ccccc1 (stereo partly drawn) [Form E, (2S)-isopropyl 2-(((((2R,3R,4R,5R)-5-(2,4-dioxo-3,4-dihydropyrimidin-1(2H)-yl)-4-fluoro-3-hydroxy-4-methyltetrahydrofuran-2-yl)methoxy)(phenoxy)phosphoryl)amino)propanoate]
stable for ([5]; at 25 degrees): at least 3 months | stable for ([5]; at 40 degrees): at least 3 months | hysteresis between the desorption and the absorption isotherm ([4]; DVS): doesn't exhibit any hysteresis | critical relative humidity in the sorption curve at which the rate of water uptake changes (inflection point) [4]: does not show this inflection point | Change in Mass (%) ([4]; DVS, relative humidity 70%): 0.07% | Change in Mass (%) ([4]; DVS, relative humidity 90%): 0.12%

CC(C)OC(=O)[C@H](C)NP(=O)(OC[C@H]1O[C@@H](n2ccc(=O)[nH]c2=O)[C@](C)(F)[C@@H]1O)Oc1ccccc1 (stereo partly drawn) [Form 1, (2S)-isopropyl 2-(((((2R,3R,4R,5R)-5-(2,4-dioxo-3,4-dihydropyrimidin-1(2H)-yl)-4-fluoro-3-hydroxy-4-methyltetrahydrofuran-2-yl)methoxy)(phenoxy)phosphoryl)amino)propanoate]
critical relative humidity in the sorption curve at which the rate of water uptake changes (inflection point) [4]: about 80 % RH | water uptake ([4]; DVS, above 80% RH): about 5% | Change in Mass (%) ([4]; DVS, relative humidity 70%): 0.13% | Change in Mass (%) ([4]; DVS, relative humidity 90%): 5.57%

CC(C)OC(=O)[C@H](C)NP(=O)(OC[C@H]1O[C@@H](n2ccc(=O)[nH]c2=O)[C@](C)(F)[C@@H]1O)Oc1ccccc1 (stereo partly drawn) [(2S)-isopropyl 2-(((((2R,3R,4R,5R)-5-(2,4-dioxo-3,4-dihydropyrimidin-1(2H)-yl)-4-fluoro-3-hydroxy-4-methyltetrahydrofuran-2-yl)methoxy)(phenoxy)phosphoryl)amino)propanoate]
resulting density (compressibility) [6]: 0.48 g/mL

CC(C)OC(=O)[C@H](C)NP(=O)(OC[C@H]1O[C@@H](n2ccc(=O)[nH]c2=O)[C@](C)(F)[C@@H]1O)Oc1ccccc1 (stereo partly drawn) [Form 7, (2S)-isopropyl 2-(((((2R,3R,4R,5R)-5-(2,4-dioxo-3,4-dihydropyrimidin-1(2H)-yl)-4-fluoro-3-hydroxy-4-methyltetrahydrofuran-2-yl)methoxy)(phenoxy)phosphoryl)amino)propanoate]
solubility (percent dissolved) [7]: ≥ 65% | solubility at 15 min ([1]; 0.01 M HCl, pH 2, simulated gastric fluid, 15 min): 3200 µg/mL (≈ 6.04 mM) | solubility at 1 h ([1]; 0.01 M HCl, pH 2, simulated gastric fluid, 1 h): 3200 µg/mL (≈ 6.04 mM) | solubility at 15 min ([1]; 20 mM sodium acetate/acetic acid buffer, pH 4.5, aqueous buffer, 20 mM NaOAc/HOAc (pH 4.5), 15 min): 3100 µg/mL (≈ 5.86 mM) | solubility at 1 h ([1]; 20 mM sodium acetate/acetic acid buffer, pH 4.5, aqueous buffer, 20 mM NaOAc/HOAc (pH 4.5), 1 h): 3100 µg/mL (≈ 5.86 mM) | solubility at 15 min ([1]; 50 mM KH2PO4 buffer, pH 6.8, aqueous buffer, 50 mM KH2PO4 (pH 6.8), 15 min): 3200 µg/mL (≈ 6.04 mM) | solubility at 1 h ([1]; 50 mM KH2PO4 buffer, pH 6.8, aqueous buffer, 50 mM KH2PO4 (pH 6.8), 1 h): 3000 µg/mL (≈ 5.67 mM) | solubility compared with the solubility of Form 6 ([1]; physiologically relevant solvents, after 15 min and after 1 hour): approximately one third higher | solubility at 15 min ([1]; water, 15 min): 3100 µg/mL (≈ 5.86 mM) | solubility at 1 h ([1]; water, 1 h): 3100 µg/mL (≈ 5.86 mM)
